The record followed here is PubChem BioAssay AID651630 (Sanford-Burnham Center for Chemical Genomics, 2012).

One test has as its system TAG. Nature of the test: triacylglycerol accumulation inhibitor potency, dose response, cell-based, panel, Nile Red and DAPI fluorescence, H9c2 (AID 651630).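 Note: cells exposed to compound overnight before fixation and staining.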 As to conditions: H9c2 cells, Nile Red TAG fluorescence, oleic acid.
A further test has as its system DAPI. The description is as above. As to conditions: H9c2 cells, DAPI nuclear fluorescence (cytotoxicity counter-readout), oleic acid.

The source made the active and inactive calls.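 Rule for the calls: active = lipid-stain IC50 at or below a set limit, with nuclear-stain toxicity IC50 at least five times higher; inactive = the rest.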

In the case of `COc1ccccc1C1C2=C(COC2=O)Nc2cc3c(cc21)OCO3` (stereo not given), the 50% inhibitory concentration (IC50) in the test with TAG (run 1) was below 0.78 µM; with TAG (run 2), above 25 µM. In addition, the IC50 cytotoxicity (DAPI nuclear signal decrease) with DAPI (mean of runs) was > 25 µM (inactive); in the test on DAPI (run 1), above 25 µM; in the test with DAPI (run 2) it was above 25 µM.

Turning to `Cc1cccc(Oc2nc(-c3ccccn3)nc3ccccc23)c1`, the IC50 is > 25 µM (inactive) in the test with TAG (mean of runs), above 25 µM in the test on TAG (run 1) and above 25 µM with TAG (run 2). Further, the figures for the IC50 cytotoxicity (DAPI nuclear signal decrease) in the test on DAPI (mean of runs), in the test with DAPI (run 1) and in the test with DAPI (run 2) were > 25 µM (inactive), above 25 µM and above 25 µM, respectively.

Consider `Cc1ccc(-c2nn3c(C)nnc3c3ccccc23)cc1S(=O)(=O)NC(C)c1ccccc1` (stereo not given), for which the figures for the IC50 in the test on TAG (mean of runs), in the test with TAG (run 1) and in the test on TAG (run 2) were 19.7 µM (inactive), 18.7 µM and 20.6 µM, respectively. Also, the IC50 cytotoxicity (DAPI nuclear signal decrease) is > 25 µM (inactive) in the test on DAPI (mean of runs), above 25 µM in the test on DAPI (run 1) and above 25 µM in the test on DAPI (run 2).

Regarding `Cc1c(C#N)c(O)n(CCO)c(=O)c1N=Nc1ccc2c(c1)COC2=O`, the IC50 in the test on TAG (mean of runs) is 16.5 µM (inactive); in the test with TAG (run 1) it was 14.3 µM; in the test with TAG (run 2), 18.6 µM. The IC50 cytotoxicity (DAPI nuclear signal decrease) in the test on DAPI (mean of runs) was 19.9 µM (inactive); in the test on DAPI (run 1), 24.4 µM; with DAPI (run 2), 15.3 µM.

As to `O=C(Cn1cc[n+](CC(=O)c2ccc(Cl)cc2Cl)c1)c1ccc(Cl)cc1Cl`, the half-maximal inhibitory concentration (IC50) with TAG (run 1) is above 25 µM; in the test on TAG (run 2) it was 20.9 µM. The IC50 cytotoxicity (DAPI nuclear signal decrease) with DAPI (mean of runs) was > 25 µM (inactive); in the test with DAPI (run 1), above 25 µM; with DAPI (run 2), above 25 µM.

Turning to `COc1ccccc1-c1cc(NC=O)c2ncc(-c3cccc(C(=O)N(C)C)c3)n2c1`, the IC50 is 15.3 µM (inactive) in the test with TAG (mean of runs), 17.5 µM in the test on TAG (run 1) and 13.1 µM in the test with TAG (run 2). Further, the values for the IC50 cytotoxicity (DAPI nuclear signal decrease) with DAPI (mean of runs), in the test on DAPI (run 1) and in the test on DAPI (run 2) were > 25 µM (inactive), above 25 µM and above 25 µM, respectively.

For `CCC(C)(C)NC(=O)C(c1ccc(OC)cc1)N(CC1CCCO1)C(=O)CCC(=O)Nc1cc(C)on1` (stereo not given), the concentration for half-maximal inhibition (IC50) is 7.02 µM in the test with TAG (mean of runs), 8.17 µM in the test on TAG (run 1) and 5.88 µM with TAG (run 2). In addition, the IC50 cytotoxicity (DAPI nuclear signal decrease) is > 25 µM (inactive) with DAPI (mean of runs), above 25 µM with DAPI (run 1) and above 25 µM with DAPI (run 2).

As to `COC(=O)c1ccc(Oc2cc(C)nc(SC)n2)cc1`, the IC50 in the test on TAG (run 1) is above 25 µM; with TAG (run 2), 14.1 µM. For the same molecule, the IC50 cytotoxicity (DAPI nuclear signal decrease) in the test with DAPI (mean of runs) was > 25 µM (inactive); with DAPI (run 1) it was above 25 µM; with DAPI (run 2), above 25 µM.

Regarding `CC1(C)Cc2c(C#N)c(SCC(=O)c3ccccc3)nc(N3CCOCC3)c2CS1`, the IC50 with TAG (mean of runs) is 19.3 µM (inactive); in the test on TAG (run 1) it was 19.5 µM; with TAG (run 2) it was 19.1 µM. Also, the IC50 cytotoxicity (DAPI nuclear signal decrease) with DAPI (mean of runs) is > 25 µM (inactive); with DAPI (run 1) it was above 25 µM; with DAPI (run 2), above 25 µM.

For the molecule `CCOc1ccc(NC(=O)CN(C)C(=O)c2cc(-c3ccc(OC)cc3)nc3ccccc23)cc1OCC`, the half-inhibitory concentration (IC50) in the test with TAG (mean of runs) is 10.1 µM; in the test with TAG (run 1), 9.04 µM; with TAG (run 2), 11.1 µM. Besides, the IC50 cytotoxicity (DAPI nuclear signal decrease) is > 25 µM (inactive) with DAPI (mean of runs), above 25 µM in the test on DAPI (run 1) and above 25 µM in the test on DAPI (run 2).

On to `CC(Sc1nc(NCc2ccccc2)nc(N2CCOCC2)n1)C(=O)Nc1ccccc1` (stereo not given), for which the IC50 with TAG (mean of runs) is 1.44 µM; with TAG (run 1), 1.29 µM; with TAG (run 2) it was 1.58 µM. Also, the IC50 cytotoxicity (DAPI nuclear signal decrease) in the test on DAPI (run 1) and in the test on DAPI (run 2) was above 25 µM each time.

Turning to `Nc1c(Cl)cc(-c2csc(N3CCCC3c3nc4cc(Cl)c(Cl)cc4n3CCCO)n2)cc1Cl` (stereo not given), the values for the concentration for half-maximal inhibition (IC50) with TAG (mean of runs), in the test with TAG (run 1) and with TAG (run 2) were 8.37 µM, 7.74 µM and 9 µM, respectively. For the same molecule, the IC50 cytotoxicity (DAPI nuclear signal decrease) in the test on DAPI (mean of runs) was > 25 µM (inactive); with DAPI (run 1) it was above 25 µM; with DAPI (run 2), above 25 µM.

As for `CCC(=O)Nc1ccc(-c2nnc(-c3ccccc3)o2)cc1`, the figures for the IC50 in the test on TAG (mean of runs), in the test with TAG (run 1) and in the test with TAG (run 2) were > 25 µM (inactive), above 25 µM and above 25 µM, respectively. Also, the values for the IC50 cytotoxicity (DAPI nuclear signal decrease) in the test on DAPI (mean of runs), in the test on DAPI (run 1) and with DAPI (run 2) were > 25 µM (inactive), above 25 µM and above 25 µM, respectively.

In the case of `CCOC(=O)c1cc(-c2ccccc2)sc1NC(=O)C(C)N1C(=O)NC(C)(c2ccc(Cl)cc2)C1=O` (stereo not given), the half-maximal inhibitory concentration (IC50) in the test with TAG (mean of runs) was 5.58 µM; in the test on TAG (run 1), 5.07 µM; in the test on TAG (run 2), 6.09 µM. For the same molecule, the IC50 cytotoxicity (DAPI nuclear signal decrease) with DAPI (mean of runs) was > 25 µM (inactive); in the test with DAPI (run 1) it was above 25 µM; with DAPI (run 2), above 25 µM.

`CC1(C(=O)NCc2cccs2)Cc2c(-c3ccc4c(c3)OCO4)ccnc2O1` (stereo not given): the IC50 in the test with TAG (mean of runs) is > 25 µM (inactive); in the test with TAG (run 1) it was above 25 µM; in the test with TAG (run 2), above 25 µM. The results for the IC50 cytotoxicity (DAPI nuclear signal decrease) in the test on DAPI (mean of runs), in the test on DAPI (run 1) and with DAPI (run 2) were > 25 µM (inactive), above 25 µM and above 25 µM, respectively.

Take `CCCc1cc(N2CCCC2)n2nc(C)c(-c3ccccc3)c2n1`: the values for the IC50 in the test on TAG (mean of runs), with TAG (run 1) and in the test on TAG (run 2) were > 25 µM (inactive), above 25 µM and above 25 µM, respectively. Also, the values for the IC50 cytotoxicity (DAPI nuclear signal decrease) in the test on DAPI (mean of runs), in the test on DAPI (run 1) and in the test with DAPI (run 2) were > 25 µM (inactive), above 25 µM and above 25 µM, respectively.

Take `O=C1C(NS(=O)(=O)c2cccs2)=C(N2CCN(c3cccc(C(F)(F)F)c3)CC2)C(=O)c2ccccc21`: the half-inhibitory concentration (IC50) with TAG (mean of runs) is 5.88 µM; with TAG (run 1), 7.01 µM; with TAG (run 2) it was 4.75 µM. In addition, the IC50 cytotoxicity (DAPI nuclear signal decrease) was > 25 µM (inactive) in the test with DAPI (mean of runs), above 25 µM with DAPI (run 1) and above 25 µM in the test on DAPI (run 2).

With `Nc1ccc(C#Cc2c(-c3ccsc3)oc3ccc(N4CCOCC4)cc23)cc1`, the figures for the half-maximal inhibitory concentration (IC50) in the test with TAG (mean of runs), in the test with TAG (run 1) and in the test on TAG (run 2) were 11.4 µM, 10.8 µM and 11.9 µM, respectively. Also, the IC50 cytotoxicity (DAPI nuclear signal decrease) was > 25 µM (inactive) with DAPI (mean of runs), above 25 µM in the test with DAPI (run 1) and above 25 µM with DAPI (run 2).

For the molecule `O=C(CC1C[C@H](C(=O)N2CCCCC2)[C@@]2(CCc3ccccc3)c3[nH]c4ccccc4c3CCN2C1=O)NCc1cccc(C(F)(F)F)c1` (stereo not given in full), the values for the IC50 in the test with TAG (mean of runs), with TAG (run 1) and in the test with TAG (run 2) were 5.34 µM, 4.84 µM and 5.84 µM, respectively. The results for the IC50 cytotoxicity (DAPI nuclear signal decrease) in the test with DAPI (mean of runs), in the test with DAPI (run 1) and with DAPI (run 2) were > 25 µM (inactive), above 25 µM and above 25 µM, respectively.
